From PMC7922224, “Searching for Small Molecules as Antibacterials: Non-Cytotoxic Diarylureas Analogues of Triclocarban” (Antibiotics, 2021)
≈ marks a conversion by molar mass, not a printed value.

Tested on: S. aureus ATCC 29213
Test: MIC by broth microdilution (CLSI)
Assay type: cell-based, Staphylococcus aureus
Conditions: Staphylococcus aureus, ATCC29213; Gram-positive; 37 °C, 24 h, Mueller Hinton Broth
Method: (§1) The in vitro Minimum Inhibitory Concentrations (MICs, μg/mL) were determined by the broth microdilution method according to the Clinical Laboratory Standards Institute (CLSI) guidelines. MIC values were recorded as the lowest concentration of compounds at which there was no optically detectable microorganism growth and evaluated by comparing the growth in each well visually with that of the growth in the control well for bacteria. All compounds were dissolved in dimethyl sulfoxide (DMSO) and were tested in a final concentration range of from 512 to 2 µg/mL. MICs for the reference antibiotic norfloxacin against quality control strains were used to confirm the validity of the screen. According to the CLSI guidelines, diphenylureas were tested in vitro against a panel of Gram-positive and Gram-negative bacteria belonging to the ATCC collection using the standard microdilution test for the determination of MICs. MICs of the synthesised compounds along with the parent compound TCC and with the standard antibiotic norfloxacin are listed in Table 1. The compounds were also analyzed in terms of molecular mass, logP (Table 1), number of hydrogen-bond donors and number of hydrogen-bond acceptors, and most of them obeyed Lipinski’s rule. […] Based on our results, it seems that the 3,4-dichloro-disubstitution pattern, which is present in TCC, is not crucial for activity. […] Moreover, the activity against Enterococcus faecalis was interesting. E. faecalis is a ubiquitous member of the healthy human gut microbiota and also a common opportunistic pathogen and leading cause of nosocomial infections. It has a high incidence for most infections, and the case numbers have been increasing in recent decades, likely due to its greater ability to persist in healthcare facilities and its higher abundance in the human gut microbiome. Kim et al. (2016) compared the bactericidal effects of plain and antibacterial soap containing 0.3% TCC. The authors found no significative difference between the effects of plain and medicated soap at either temperature, with the only exception of E. faecalis ATCC 19433 at 40 °C.
(§2) MICs (μg/mL) were determined by the broth microdilution method, using 96-well plates, according to CLSI [26]. Stock solutions of the investigated compounds were obtained by setting the concentration at the maximum possible value. Then, the stock solutions were diluted 1:10 with Mueller Hinton Broth (Oxoid, Italy). Afterwards, twofold serial dilutions in the suitable test medium were carried out to obtain a set of concentrations from 512 to 2 µg/mL in the wells. To obtain the stock solution, DMSO (100%) was employed as diluent. The following bacteria strains, available as freeze-dried discs, belonging to the ATCC collection, were used: Gram-positive: S. aureus ATCC 29213, 6538, and 6538P, E. faecalis ATCC 29212; Gram-negative: K. pneuomoniae ATCC 13883, P. aeruginosa ATCC 27853. To conserve the purity of cultures and to enable their reproducibility, cryovials of all microbial strains in the medium were set up and stored at −80 °C. Pre-cultures of each bacterial strain were prepared in Mueller Hinton Broth (MHB) and incubated at 37 °C for 3–5 h. The turbidity of bacterial cell suspension was calibrated to 0.5 McFarland Standard by the spectrophotometric method (OD 625 nm 0.08–0.10), as indicated in the CLSI protocol M7-A9 and, further, the standardized suspension was diluted (1:100) with MHB to reach 1–2 × 10^6 CFU/mL. All wells were seeded with 100 µl of the mentioned final inoculum, and some wells contained only inoculated broth as control growth. […] The MICs were determined by using the assay repeated twice in triplicate. Throughout the study, norfloxacin was used as reference antibiotic. Appropriate controls involved norfloxacin for bacteria as international reference standard. […]

Row | Structure (SMILES) | MIC [µg/mL]
1 | Cc1ccc(NC(=O)Nc2c(C)cccc2C)cc1 [1ab, 1-(2,6-Dimethylphenyl)-3-p-tolylurea] | > 256
2 | Cc1cccc(C)c1NC(=O)Nc1ccc(Cl)c(Cl)c1 [1be, 1-(2,6-Dimethylphenyl)-3-(3,4-dichlorophenyl)urea] | 128 (≈ 414 µM)

Tested on: S. aureus ATCC 6538P
Test: MIC by broth microdilution (CLSI)
Assay type: cell-based, Staphylococcus aureus
Conditions: Staphylococcus aureus, ATCC6538P; Gram-positive; 37 °C, 24 h, Mueller Hinton Broth
Method: as §1, §2

Row | Structure (SMILES) | MIC [µg/mL]
3 | Cc1ccc(NC(=O)Nc2c(C)cccc2C)cc1 [1ab, 1-(2,6-Dimethylphenyl)-3-p-tolylurea] | 16 (≈ 62.9 µM)
4 | Cc1cccc(C)c1NC(=O)Nc1ccc(Cl)c(Cl)c1 [1be, 1-(2,6-Dimethylphenyl)-3-(3,4-dichlorophenyl)urea] | 128 (≈ 414 µM)

Tested on: S. aureus ATCC 6538
Test: MIC by broth microdilution (CLSI)
Assay type: cell-based, Staphylococcus aureus
Conditions: Staphylococcus aureus, ATCC6538; Gram-positive; 37 °C, 24 h, Mueller Hinton Broth
Method: as §1, §2

Row | Structure (SMILES) | MIC [µg/mL]
5 | Cc1ccc(NC(=O)Nc2c(C)cccc2C)cc1 [1ab, 1-(2,6-Dimethylphenyl)-3-p-tolylurea] | 16 (≈ 62.9 µM)
6 | Cc1cccc(C)c1NC(=O)Nc1ccc(Cl)c(Cl)c1 [1be, 1-(2,6-Dimethylphenyl)-3-(3,4-dichlorophenyl)urea] | 32 (≈ 103 µM)

Tested on: E. faecalis ATCC 29212
Test: MIC by broth microdilution (CLSI)
Assay type: cell-based, Enterococcus faecalis
Conditions: Enterococcus faecalis, ATCC29212; Gram-positive; 37 °C, 24 h, Mueller Hinton Broth; read-out: MIC E.f. 29212
Method: as §1, §2

Row | Structure (SMILES) | MIC [µg/mL]
7 | Cc1ccc(NC(=O)Nc2c(C)cccc2C)cc1 [1ab, 1-(2,6-Dimethylphenyl)-3-p-tolylurea] | 32 (≈ 126 µM)
8 | Cc1cccc(C)c1NC(=O)Nc1ccc(Cl)c(Cl)c1 [1be, 1-(2,6-Dimethylphenyl)-3-(3,4-dichlorophenyl)urea] | 64 (≈ 207 µM)

Tested on: E. coli 25922
Test: MIC by broth microdilution (CLSI)
Assay type: cell-based
Conditions: Escherichia coli, Gram-negative, 37 °C, 24 h, Mueller Hinton Broth

Row | Structure (SMILES) | MIC [µg/mL]
9 | Cc1ccc(NC(=O)Nc2c(C)cccc2C)cc1 [1ab, 1-(2,6-Dimethylphenyl)-3-p-tolylurea] | > 256
10 | Cc1cccc(C)c1NC(=O)Nc1ccc(Cl)c(Cl)c1 [1be, 1-(2,6-Dimethylphenyl)-3-(3,4-dichlorophenyl)urea] | > 256

Tested on: K. pneumoniae ATCC 13883
Test: MIC by broth microdilution (CLSI)
Assay type: cell-based
Conditions: Klebsiella pneumoniae, ATCC13883; Gram-negative; 37 °C, 24 h, Mueller Hinton Broth; read-out: MIC K.p. 13883
Method: as §1, §2

Row | Structure (SMILES) | MIC [µg/mL]
11 | Cc1ccc(NC(=O)Nc2c(C)cccc2C)cc1 [1ab, 1-(2,6-Dimethylphenyl)-3-p-tolylurea] | > 256
12 | Cc1cccc(C)c1NC(=O)Nc1ccc(Cl)c(Cl)c1 [1be, 1-(2,6-Dimethylphenyl)-3-(3,4-dichlorophenyl)urea] | > 256

Tested on: P. aeruginosa ATCC 27853
Test: MIC by broth microdilution (CLSI)
Assay type: cell-based
Conditions: Pseudomonas aeruginosa, ATCC27853; Gram-negative; 37 °C, 24 h, Mueller Hinton Broth
Method: as §1, §2

Row | Structure (SMILES) | MIC [µg/mL]
13 | Cc1ccc(NC(=O)Nc2c(C)cccc2C)cc1 [1ab, 1-(2,6-Dimethylphenyl)-3-p-tolylurea] | > 256
14 | Cc1cccc(C)c1NC(=O)Nc1ccc(Cl)c(Cl)c1 [1be, 1-(2,6-Dimethylphenyl)-3-(3,4-dichlorophenyl)urea] | > 256

Tested on: Staphylococcus aureus
Test: MIC by broth microdilution, S. aureus (strain not given)
Assay type: cell-based
Conditions: strain not specified (best value among the ATCC strains), read-out: MIC against S. aureus
Method: as §1, §2

Row | Structure (SMILES) | MIC [µg/mL]
15 | Cc1ccc(NC(=O)Nc2c(C)cccc2C)cc1 [1ab, 1-(2,6-Dimethylphenyl)-3-p-tolylurea] | 16 (≈ 62.9 µM)
16 | Cc1cccc(C)c1NC(=O)Nc1ccc(Cl)c(Cl)c1 [1be, 1-(2,6-Dimethylphenyl)-3-(3,4-dichlorophenyl)urea] | 32 (≈ 103 µM)

Tested on: A2058 melanoma epithelial cells
Test: MTT cell viability assay
Assay type: cell-based
Conditions: Homo sapiens, 72 h, mean ± SD of three independent experiments
Excerpt: (§3) Human MCF-7 and MDA-MB-231 breast cancer cells, HeLa and […] uterine carcinoma cells, A2058 melanoma epithelial cells, MCF-10A mammary epithelial cells and Hek-293 embryonic kidney epithelial cells were obtained from American Type Culture Collection (ATCC, Manassas, VA, USA). Estrogen receptor positive [(ER(+)] MCF-7 and triple negative MDA-MB-231 breast cancer cells were maintained in Dulbecco’s modified Eagle’s medium/nutrient mixture F-12 Ham (DMEM-F12) medium containing 2 mmol/L L-glutamine, 1 mg/mL penicillin-streptomycin and supplemented with 5% fetal bovine serum (FBS). HeLa epithelial cervix carcinoma cells, estrogen receptor negative [ER(-)], and Ishikawa endometrial adenocarcinoma cell, estrogen receptor positive [ER(+)], were kept in minimum essential medium (MEM), supplemented with 10% FBS, 100 U/mL penicillin/streptomycin and 1% non-essential amino acid. A2058 highly metastatic melanoma epithelial cells were kept in DMEM low glucose (1 g/L), supplemented with 20% FBS, 1% l-glutamine and 100 U/mL penicillin/streptomycin. MCF-10A mammary epithelial cells, were cultured in DMEM/F12 medium, supplemented with 5% horse serum (HS), 100 U/mL penicillin/streptomycin, […] hydrocortisone, 20 ng/mL human epidermal growth factor (hEGF), […] and […] cholera enterotoxin (Sigma-Aldrich, Milan, Italy). Hek-293 embryonic kidney epithelial cells were cultured in DMEM high glucose (4.5 g/L), supplemented with 10% FBS, 1% l-glutamine and 100 U/mL penicillin/streptomycin. Cells were conserved at 37 °C in a humid atmosphere of 95% air and 5% CO2, and screened for contamination at regular intervals.
(§4) Cell viability was determined using the 3-(4,5-dimethylthiazol-2-y1)-2,5-diphenyltetrazolium bromide (MTT, Sigma-Aldrich, Milan, Italy) assay. Cells were seeded on 48-well plates and grown in complete medium. Before treatment, cells were starved in serum free medium for 24 h to allow cell cycle synchronization. […] Data are representative of three independent experiments; standard deviations (SD) are shown.

Row | Structure (SMILES) | IC50 [µg/mL]
17 | Cc1ccc(NC(=O)Nc2c(C)cccc2C)cc1 [1ab, 1-(2,6-Dimethylphenyl)-3-p-tolylurea] | > 200

Tested on: HeLa uterine cancer cells
Test: MTT cell viability assay
Assay type: cell-based
Conditions: Homo sapiens, 72 h, mean ± SD of three independent experiments
Excerpt: as §3, §4

Row | Structure (SMILES) | IC50 [µg/mL]
18 | Cc1ccc(NC(=O)Nc2c(C)cccc2C)cc1 [1ab, 1-(2,6-Dimethylphenyl)-3-p-tolylurea] | > 200

Tested on: Hek-293 embryonic kidney epithelial cells
Test: MTT cell viability assay
Assay type: cell-based
Conditions: Homo sapiens, HEK293, normal cells, 72 h, mean ± SD of three independent experiments
Excerpt: as §3, §4

Row | Structure (SMILES) | IC50 [µg/mL]
19 | Cc1ccc(NC(=O)Nc2c(C)cccc2C)cc1 [1ab, 1-(2,6-Dimethylphenyl)-3-p-tolylurea] | > 200

Tested on: Ishikawa uterine cancer cells
Test: MTT cell viability assay
Assay type: cell-based
Conditions: Homo sapiens, 72 h, mean ± SD of three independent experiments
Excerpt: as §3, §4

Row | Structure (SMILES) | IC50 [µg/mL]
20 | Cc1ccc(NC(=O)Nc2c(C)cccc2C)cc1 [1ab, 1-(2,6-Dimethylphenyl)-3-p-tolylurea] | > 200

Tested on: MCF-10A mammary epithelial cells
Test: MTT cell viability assay
Assay type: cell-based
Conditions: Homo sapiens, normal cells, 72 h, mean ± SD of three independent experiments
Excerpt: as §3, §4

Row | Structure (SMILES) | IC50 [µg/mL]
21 | Cc1ccc(NC(=O)Nc2c(C)cccc2C)cc1 [1ab, 1-(2,6-Dimethylphenyl)-3-p-tolylurea] | > 200

Tested on: MCF-7 breast cancer cells
Test: MTT cell viability assay
Assay type: cell-based
Conditions: Homo sapiens, MCF7, 72 h, mean ± SD of three independent experiments
Excerpt: as §3, §4

Row | Structure (SMILES) | IC50 [µg/mL]
22 | Cc1ccc(NC(=O)Nc2c(C)cccc2C)cc1 [1ab, 1-(2,6-Dimethylphenyl)-3-p-tolylurea] | > 200

Tested on: MDA-MB-231 breast cancer cells
Test: MTT cell viability assay
Assay type: cell-based
Conditions: Homo sapiens, 72 h, mean ± SD of three independent experiments
Excerpt: as §3, §4

Row | Structure (SMILES) | IC50 [µg/mL]
23 | Cc1ccc(NC(=O)Nc2c(C)cccc2C)cc1 [1ab, 1-(2,6-Dimethylphenyl)-3-p-tolylurea] | > 200

Tested on: cancer cell lines (MCF-7, MDA-MB-231, HeLa, Ishikawa, A2058)
Test: MTT cell viability assay, panel of cancer cell lines
Assay type: cell-based
Conditions: Homo sapiens, all cancer cell lines used, 72 h, read-out: IC50 against the cancer cell lines
Excerpt: In order to investigate the anticancer effects of compounds 1ab, 1bc and 1ce (TCC), we used different human cancer cell models, namely, two breast cancer cells (MCF-7 and MDA-MB-231), two uterine cancer cells (HeLa and Ishikawa) and the melanoma epithelial cells A2058.
as §3
Cell viability was determined using the 3-(4,5-dimethylthiazol-2-y1)-2,5-diphenyltetrazolium bromide (MTT, Sigma-Aldrich, Milan, Italy) assay. […]

Row | Structure (SMILES) | IC50 [µg/mL]
24 | Cc1ccc(NC(=O)Nc2c(C)cccc2C)cc1 [1ab, 1-(2,6-Dimethylphenyl)-3-p-tolylurea] | > 200

Tested on: not given
Test: not given
Conditions: not given

Row | Structure (SMILES) | melting point [°C]
25 | Cc1ccc(NC(=O)Nc2c(C)cccc2C)cc1 [1ab, 1-(2,6-Dimethylphenyl)-3-p-tolylurea] | 242 to 243
26 | Cc1cccc(C)c1NC(=O)Nc1ccc(Cl)c(Cl)c1 [1be, 1-(2,6-Dimethylphenyl)-3-(3,4-dichlorophenyl)urea] | 249 to 250
